Data reported in US6599506B1, “D-form polypeptide that inhibits the interaction between LFA-1 and ICAM-1” (The University of Kansas, priority 1999, dated 2003).
Read-outs that look alike come from different tables or passages of the source. Blank lines part the entries; values can stand above or below the molecule they belong to. Bridge positions count the residues as written; N and C are the ends. Square brackets hold non-standard residues; d marks the D form. Ends that are not written are not given here. Peptide text beside a SMILES is read from it. Pen = CC(C)(S)[C@H](N)C(=O)O

How the values were obtained:
[1] = system: human tonsil T cells (responders) with irradiated human mononuclear stimulator cells; T-cell proliferation; format: cell-based; settings: for inhibitory effect on T-cell proliferation: FIG. 3, tested at 125, 250 and 500 μM; for effectiveness in inhibiting responder T-cell proliferation: FIG. 2, tested at 50, 150, 250, 350, 500 and 750 μM; for Inhibition of T-cell Proliferation (%): peptides at 500 μM
Description: The one-way MLR has been previously described (Kruisbeek et al., Current Protocols in Immunology, Proliferative Assays for T-Cell Function, '3.12.1-3.12.14 (1991), which is incorporated herein by reference). Specifically, human tonsil T cells were suspended at a concentration of 2−4×10^6 cells/ml in cell culture medium (RPMI), for use as responders. Stimulator cells were human mononuclear cells isolated from first Ficoll separation of peripheral blood (buffy coat) and were suspended at a concentration of 2−4×10^6 cells/ml in cell culture medium (RPMI). The stimulator cells were inactivated before use by treatment with 3,000-5,000 rad of ionizing radiation from γ137Cs source. One hundred μl of each cell suspension were combined in each well of a 96-well plate in the absence or presence of varying concentrations of test polypeptides, as detailed below. Cell proliferation was assessed after 72 hours, by 3H-thymidine addition to each well (1 μCi/well, 67 Ci/mmol) with incubation for six hours. The cells were harvested using a PHD Cell Harvester (Cambridge Technology, Inc., Watertown, Mass.); the incorporated 3H was assessed using a liquid scintillation counter (Packard Instrument, Inc., Donner's Grove, Ill.).
In FIGS. 2 and 3, the Y-axis values are mean percentage ±SE of proliferation of responders. “2s” refers to irradiated buffy coat cells, and “2r” refers to T-lymphocytes derived from tonsil. “2s2r” refers to non-treated, mixed lymphocyte sample, which is the positive control (represented by dashed line). Inhibition of proliferation by anti-CD11a antibody (Pharmingen, anti-human CD11a) was used as a control for inhibition of the LFA-1/ICAM-1 interaction. These polypeptides are derived from the human LFA-1 β (CD18) subunit.

[2] = biological target: intracellular adhesion molecule (ICAM-1; CD54) (UniProt P05362 28-532, limits assumed); assay: cell-based or functional assay
[3] = linear D-peptides (*3), minus value = peptide activated T-lymphocytes

Chain of intracellular adhesion molecule (ICAM-1; CD54) (P05362 28-532 limits assumed): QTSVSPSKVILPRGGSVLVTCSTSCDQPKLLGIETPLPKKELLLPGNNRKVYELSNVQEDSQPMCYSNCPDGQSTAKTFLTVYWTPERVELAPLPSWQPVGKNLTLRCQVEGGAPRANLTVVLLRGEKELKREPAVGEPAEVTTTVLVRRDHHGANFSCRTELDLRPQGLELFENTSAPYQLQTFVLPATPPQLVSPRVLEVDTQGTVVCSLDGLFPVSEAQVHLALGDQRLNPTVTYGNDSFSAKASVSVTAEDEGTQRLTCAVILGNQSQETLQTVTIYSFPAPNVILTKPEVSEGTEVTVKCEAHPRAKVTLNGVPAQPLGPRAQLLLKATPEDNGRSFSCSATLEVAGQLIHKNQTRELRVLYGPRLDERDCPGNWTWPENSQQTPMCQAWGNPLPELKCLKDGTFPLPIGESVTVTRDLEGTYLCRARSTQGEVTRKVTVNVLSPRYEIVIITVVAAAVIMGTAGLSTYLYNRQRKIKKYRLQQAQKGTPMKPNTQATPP

Molecule: CC(C)C[C@@H](NC(=O)[C@H](N)CC(=O)O)C(=O)N[C@H](CO)C(=O)N[C@H](Cc1ccc(O)cc1)C(=O)N[C@H](CO)C(=O)N[C@H](CC(C)C)C(=O)N[C@H](CC(=O)O)C(=O)N[C@H](CC(=O)O)C(=O)N[C@H](CC(C)C)C(=O)N[C@H](CCCNC(=N)N)C(=O)O [D-LBEL, H-DLSYSLDDLR-OH] (H-[dD][dL][dS][dY][dS][dL][dD][dD][dL][dR]-OH)
inhibiting T-cell proliferation in MLR assays [1]: significantly effective
inhibitory effect on T-cell proliferation [1]: amazing inhibitory effect, which was much more effective than either LBE or cLBEL

Molecule: CC(C)C[C@@H]1NC(=O)[C@H](CCCCN)NC(=O)[C@H](CCCCN)NC(=O)[C@H](C(C)C)NC(=O)[C@H](CC(N)=O)NC(=O)[C@H](CCCNC(=N)N)NC(=O)[C@H](CC(C)C)NC(=O)[C@H](CC(=O)O)NC(=O)[C@@H](N)C(C)(C)SSC[C@@H](C(N)=O)NC(=O)CNC(=O)CNC1=O [cLBEC, H-PenDLRNVKKLGGC-NH2] (H-[Pen]DLRNVKKLGGC-NH2; disulfide 1-12)
effectiveness in inhibiting responder T-cell proliferation [1]: more effective than LBE

Molecule: CC(C)C[C@@H]1NC(=O)[C@H](CC(=O)O)NC(=O)[C@H](CC(=O)O)NC(=O)[C@H](CC(C)C)NC(=O)[C@H](CO)NC(=O)[C@H](Cc2ccc(O)cc2)NC(=O)[C@H](CO)NC(=O)[C@H](CC(C)C)NC(=O)[C@H](CC(=O)O)NC(=O)[C@@H](N)C(C)(C)SSC[C@@H](C(N)=O)NC(=O)[C@H](CCCNC(=N)N)NC1=O [cLBEL, H-PenDLSYSLDDLRC-NH2] (H-[Pen]DLSYSLDDLRC-NH2; disulfide 1-12)
effectiveness in inhibiting responder T-cell proliferation [1]: more effective than LBE

Molecule: H-DLRNVKKLGG-H (H-[dD][dL][dR][dN][dV][dK][dK][dL]GG; not fully specified; also: C-terminus written -H) [D-LBEC]
inhibitory effect on T-cell proliferation [1]: did not show any inhibitory effects
Inhibition of T-cell Proliferation (%) [1, 3]: −47.6(*4) %

Molecule: H-GGDLLRALNE-OH (H-GG[dD][dL][dL][dR][dA][dL][dN][dE]-OH) [D-LBER]
inhibitory effect on T-cell proliferation [1]: lost the biological function to inhibit T-cell proliferation
Inhibition of T-cell Proliferation (%) [1, 3]: −90.5(*4) %

Molecule: LBEL: linear L-peptide of Table 2, sequence not printed (DLSYSLDDLR)
Inhibition of T-cell Proliferation (%) ([1]; linear L-peptides (*1), second value of cell 'x/y'): N.D./24.8%

Inhibition of T-cell Proliferation (%) in mixed lymphocyte reaction, peptide at 500 µM [2]: 18%
B1: cLBEL (peptide)
peptide: H-[Pen]DLSYSLDDLRC-NH2
modifications: disulfide 1-12
SMILES: CC(C)C[C@@H]1NC(=O)[C@H](CC(=O)O)NC(=O)[C@H](CC(=O)O)NC(=O)[C@H](CC(C)C)NC(=O)[C@H](CO)NC(=O)[C@H](Cc2ccc(O)cc2)NC(=O)[C@H](CO)NC(=O)[C@H](CC(C)C)NC(=O)[C@H](CC(=O)O)NC(=O)[C@@H](N)C(C)(C)SSC[C@@H](C(N)=O)NC(=O)[C@H](CCCNC(=N)N)NC1=O

Inhibition of T-cell Proliferation (%) in mixed lymphocyte reaction, peptide at 500 µM [2]: 24.8%
B2: LBEL (linear L-peptide) (peptide)
peptide: DLSYSLDDLR

Inhibition of T-cell Proliferation (%) in mixed lymphocyte reaction, peptide at 500 µM [2]: 18%
B3: cLBEC (peptide)
peptide: H-[Pen]DLRNVKKLGGC-NH2
modifications: disulfide 1-12
SMILES: CC(C)C[C@@H]1NC(=O)[C@H](CCCCN)NC(=O)[C@H](CCCCN)NC(=O)[C@H](C(C)C)NC(=O)[C@H](CC(N)=O)NC(=O)[C@H](CCCNC(=N)N)NC(=O)[C@H](CC(C)C)NC(=O)[C@H](CC(=O)O)NC(=O)[C@@H](N)C(C)(C)SSC[C@@H](C(N)=O)NC(=O)CNC(=O)CNC1=O

Inhibition of T-cell Proliferation (%) in mixed lymphocyte reaction, peptide at 500 µM [2]: -47.6%
B4: D-LBEC (peptide)
peptide: H-[dD][dL][dR][dN][dV][dK][dK][dL]GG
modifications: not fully specified (C-terminus)

Inhibition of T-cell Proliferation (%) in mixed lymphocyte reaction, peptide at 500 µM [2]: -90.5%
B5: D-LBER (peptide)
peptide: H-GG[dD][dL][dL][dR][dA][dL][dN][dE]-OH
SMILES: CC(C)C[C@@H](NC(=O)[C@@H](C)NC(=O)[C@@H](CCCNC(=N)N)NC(=O)[C@@H](CC(C)C)NC(=O)[C@@H](CC(C)C)NC(=O)[C@@H](CC(=O)O)NC(=O)CNC(=O)CN)C(=O)N[C@H](CC(N)=O)C(=O)N[C@H](CCC(=O)O)C(=O)O

Inhibition of T-cell Proliferation (%) in mixed lymphocyte reaction, peptide at 500 µM [2]: 56.5%
B6: D-LBEL (peptide)
peptide: H-[dD][dL][dS][dY][dS][dL][dD][dD][dL][dR]-OH
SMILES: CC(C)C[C@@H](NC(=O)[C@H](N)CC(=O)O)C(=O)N[C@H](CO)C(=O)N[C@H](Cc1ccc(O)cc1)C(=O)N[C@H](CO)C(=O)N[C@H](CC(C)C)C(=O)N[C@H](CC(=O)O)C(=O)N[C@H](CC(=O)O)C(=O)N[C@H](CC(C)C)C(=O)N[C@H](CCCNC(=N)N)C(=O)O
